Reference: patent publication US12648941B2, “Piperidine urea derivatives for use as inotropic agents” (Helsinn Healthcare SA, priority 2021, dated 2026)

Experiments:
[1] = tested on: phospho (Ser 22-23) cardiac troponin I (cTnl); experiment: Phospho (Ser 22-23) cTnl western blot in cardiomyocytes; type: cell-based, mouse; details: SHAM cardiomyocytes, antagonist 3 μM before AC01/HM01 1 μM
Procedure: (§1) AC01/HM01 was suspended in phosphate buffer saline solution (PBS: in mM: NaCl 137, KCl 7, Na2HPO4 10, KH2PO4 […]) and diluted to obtain 3 different concentrations: 0.2, 0.5 or 1 μM in Tyrode solution. We used a concentration range within 0.2-1 μM to ensure that the receptor was activated. […] Prior to contractility and Ca^2+ signaling measurements and biochemical assays, cardiomyocyte suspensions from SHAM and HF hearts were randomized to 3 types of treatments: vehicle, AC01/HM01, or D-Lys3-GHPR-6+AC01/HM01. The treatment with different agents occurred for 15 minutes at room temperature. Some cell suspension aliquots were flash frozen in liquid N2 and stored at −80° C. for later biochemistry analyses. All the experiments were conducted blinded regarding the treatment of cardiomyocytes.
Aliquots of frozen cardiomyocyte suspensions were lysed using NP40 buffer (Thermo Fisher FNN0021, Stockholm, Sweden) supplemented with phosphatase inhibitors (Sigma-Aldrich P2850-1ML, P5726-1ML, Stockholm, Sweden). Protein lysates were separated by electrophoresis and transferred onto membranes. Membranes were incubated with primary antibody: rabbit anti phospho (Ser 22-23) cardiac troponin I (cTnl, Cell Signalling, Leiden, The Netherlands #4004S) and rabbit anti-cTnl (Cell Signalling #4002S, Leiden, The Netherlands). Thereafter, infrared-labelled secondary antibodies (IRDye 680 and IRDye 800, 1:5000, Licor) were used. Immunoreactive bands were analyzed using the Odyssey Infrared Imaging System (Li-Cor, Bad Homburg, Germany). Band densities were quantified with Image J (NIH, Bethesda, USA), normalized to total cTnl and final data was expressed as fold increase compared to bands representing protein extracted from vehicle treated cells.

[2] = tested on: cardiomyocytes isolated from hearts of heart failure (HF) mice; experiment: Cardiomyocyte contractility (fractional shortening, % FS), heart failure (MI) cardiomyocytes; type: cell-based, mouse; details: antagonist 3 μM before AC01/HM01 1 μM
Procedure: (§2) Cardiomyocytes were isolated freshly from cardiac ventricles separately from SHAM and HF mice following the protocol developed by the Alliance for Cellular Signalling (AfCS Procedure Protocol ID PP00000125). From each of the 5 SHAM and 3 HF hearts a cell suspension was made and divided into 10 aliquots each, for a total of 50 aliquots from SHAM and 30 aliquots from HF hearts. These aliquots were treated with vehicle, AC01/HM01 or D-Lys3-GHPR-6+AC01/HM01 as stated and used for the subsequent physiological and biochemical experiments.
AC01/HM01 was suspended in phosphate buffer saline solution (PBS: in mM: NaCl 137, KCl 7, Na2HPO4 10, KH2PO4 […]) and diluted to obtain 3 different concentrations: 0.2, 0.5 or 1 μM in Tyrode solution. We used a concentration range within 0.2-1 μM to ensure that the receptor was activated. […]
(§3) Line scan fluorescence images were acquired using a confocal microscope (Biorad; 40× oil immersion lenses). […] ImageJ software (open source software developed by NIH, Bethesda, USA) was used to quantify changes in fluorescence (Ca^2+ transients) and contractility of single cardiomyocytes.
(§4) The contractility of cardiomyocytes was measured as the percent of length shortening (fractional shortening; % FS). […]

[3] = tested on: cardiomyocytes isolated from hearts of SHAM mice; experiment: Cardiomyocyte contractility (fractional shortening, % FS), SHAM cardiomyocytes; type: cell-based, mouse; details: antagonist 3 μM before AC01/HM01 1 μM
Procedure: as §2, §1
Fresh isolated cardiomyocytes were aliquoted in 1.5 mL tubes and incubated with a cell permeable form of the fluorescent Ca^2+ indicator Fluo-3 AM for approximately 20 minutes followed by washing for >5 min. The cells were plated on laminin coated glass bottom dishes (35 mm, Mattek, Ashland, MA, USA), and then mounted in a custom built perfusion/stimulation chamber. Cells were continuously perfused with O2/CO2 (95/5%) bubbled Tyrode solution with the following composition (in mM): NaCl 121, KCl 5.0, CaCl2 1.8, MgCl2 0.5, NaH2PO4 0.4, NaHCO3 24, EDTA 0.1, glucose 5.5, which represents the vehicle solution.
15 aliquots of cardiomyocyte suspension from SHAM and 9 aliquots from HF were randomized to different treatments: vehicle, AC01/HM01 (0.2, 0.5 or 1 μM) or pretreatment with D-Lys3-GHPR-6 (3 μM) followed by AC01/HM01 (1 μM). The cardiomyocytes were electrically stimulated to contract at 1 Hz with supra-threshold voltage using two platinum electrodes attached to the perfusion/stimulation chamber.
as §3, §4

[4] = biological target: ghrelin receptor (Homo sapiens, UniProt Q92847); details: ghrelin receptor antagonist; Sigma Aldrich; read-out: IC50 for antagonistic activity; cited from earlier work
ghrelin receptor, sequence (Q92847 whole entry, species assumed): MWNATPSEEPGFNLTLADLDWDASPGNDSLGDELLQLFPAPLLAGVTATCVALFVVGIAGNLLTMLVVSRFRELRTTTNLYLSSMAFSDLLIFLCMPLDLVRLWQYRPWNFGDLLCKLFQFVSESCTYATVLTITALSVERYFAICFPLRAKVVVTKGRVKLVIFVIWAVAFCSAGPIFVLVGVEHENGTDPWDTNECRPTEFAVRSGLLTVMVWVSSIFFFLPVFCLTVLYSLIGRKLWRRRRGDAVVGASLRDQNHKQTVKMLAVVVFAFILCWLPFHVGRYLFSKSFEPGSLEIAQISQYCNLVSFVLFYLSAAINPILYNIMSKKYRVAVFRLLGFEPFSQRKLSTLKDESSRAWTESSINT

[5] = tested on: Protein kinase A (PKA); experiment: PKA activity assay in cardiomyocytes (ELISA-based kit); type: cell-based, mouse; details: isolated cardiomyocytes, pretreatment before AC01/HM01 1 μM
Procedure: as §1
Elisa-based PKA kinase activity assay kit (ab139435, Abcam, Cambridge, UK) was employed to determine PKA activity in cardiomyocytes. Aliquots of frozen cardiomyocytes were thawed and mixed with a lysis buffer containing (mM) the following: 20 MOPS, 50 β-glycerolphosphate, 5 EGTA, 2 EDTA, 1 benzamidine, 1 sodium orthovanadate, 1% NP40, 1 DTT, complete protease inhibitor cocktail (Roche Diagnostics, West Sussex, UK) and phosphatase inhibitor cocktail 3 (Sigma, Gillingham, UK). Approximately 2 μg of protein of each sample were assayed according to the manufacturer's instructions 27.

Substance: D-Lys 3 GHRP-6 [reference compound]
- effect of pretreatment on AC01/HM01-induced change of cTnl phosphorylation ([1]; listed as D-Lys3): blocked this effect
- effect of pretreatment on AC01/HM01-induced change of cTnl phosphorylation ([1]; listed as D-Lys3—GHRP-6): restored the phosphorylation levels of cTnl to physiologic levels
- effect of pretreatment on contractile effect of AC01/HM01 [2]: blocked the contractile effect
- effect of pretreatment on contractile effect of AC01/HM01 [3]: blocked the contractile effect
- IC50 [4]: 900 nM
- effect of pretreatment on AC01/HM01-induced change of PKA activity ([5]; listed as D-Lys 3): blocked
- effect of pretreatment on AC01/HM01-induced change of PKA activity ([5]; listed as D-Lys 3-GHRP-6): restored the PKA activity to physiologic levels
